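Five concentrations, 48 hours, 96-well plates. Abbreviation: GI50, concentration required for 50% inhibition of growth.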 Active and inactive are the calls of the source. Cut-off read from the data, not from the text of the source: active = GI50 up to about 1.1 µM and inactive = higher.
Tests used:
Assay in all cases: inhibition of tumour cell growth, NCI panel, 48 h
SF-539 = tested on: SF-539
KM-20L2 = tested on: KM-20L2
SN12C = tested on: SN12C
UACC-62 = tested on: UACC-62
HCT-15 = tested on: HCT-15
M19-MEL = tested on: M19-MEL
HCT-116 = tested on: HCT-116
U-251 = tested on: U-251
786-0 = tested on: 786-0
SNB-19 = tested on: SNB-19
RPMI-8226 = tested on: RPMI-8226
SW-620 = tested on: SW-620
HCC 2998 = tested on: HCC 2998
M14 = tested on: M14
SK-MEL-5 = tested on: SK-MEL-5
OVCAR-4 = tested on: OVCAR-4

`N#Cc1c(-c2ccccc2)c(-c2ccccc2)cc2c(=O)c3ccc(Cl)cc3[nH]c12` was tested, and the GI50 (SF-539) was > 100 µM (inactive), the GI50 (KM-20L2) was > 100 µM (inactive) and the GI50 (SN12C) was > 100 µM (inactive). The GI50 (UACC-62) was > 100 µM (inactive), the GI50 (HCT-15) was over 100 µM and the GI50 (M19-MEL) was > 100 µM (inactive). The GI50 (HCT-116) was > 100 µM (inactive), the GI50 (U-251) was > 100 µM (inactive) and the GI50 (786-0) was > 100 µM (inactive). For the same compound, the GI50 (SNB-19) was > 100 µM (inactive), the GI50 (RPMI-8226) was > 100 µM (inactive) and the GI50 (SW-620) was > 100 µM (inactive). For the same compound, the GI50 (HCC 2998) was > 100 µM (inactive).
In the case of `Cc1cc(O)nc(CNC(=O)c2ccc3ccccc3c2)n1`, the GI50 (M14) is reported as > 100 µM (inactive), the GI50 (SF-539) is reported as > 100 µM (inactive) and the GI50 (KM-20L2) is reported as > 100 µM (inactive). The GI50 (SN12C) was > 100 µM (inactive), the GI50 (UACC-62) was > 100 µM (inactive) and the GI50 (HCT-15) was over 100 µM. The GI50 (SK-MEL-5) was > 100 µM (inactive), the GI50 (M19-MEL) was > 100 µM (inactive) and the GI50 (HCT-116) was > 100 µM (inactive). For the same compound, the GI50 (U-251) was > 100 µM (inactive), the GI50 (786-0) was > 100 µM (inactive) and the GI50 (OVCAR-4) was > 100 µM (inactive). The GI50 (SNB-19) was > 100 µM (inactive), the GI50 (SW-620) was > 100 µM (inactive) and the GI50 (HCC 2998) was > 100 µM (inactive).
`Cc1ccc(/N=N/C(C(=O)c2ccccc2)C(=O)c2ccccc2)cc1` was tested, and the GI50 (M14) was 15.7 µM (inactive), the GI50 (SF-539) was 22.4 µM (inactive) and the GI50 (KM-20L2) was 25.3 µM (inactive). The GI50 (SN12C) was 18.7 µM (inactive), the GI50 (UACC-62) was 16.4 µM (inactive) and the GI50 (HCT-15) was 14.2 µM. The GI50 (SK-MEL-5) was 17.7 µM (inactive), the GI50 (M19-MEL) was 16 µM (inactive) and the GI50 (HCT-116) was 14.9 µM (inactive). For the same compound, the GI50 (U-251) was 18 µM (inactive), the GI50 (786-0) was 16.7 µM (inactive) and the GI50 (OVCAR-4) was 13.1 µM (inactive). The GI50 (SNB-19) was 19 µM (inactive), the GI50 (RPMI-8226) was 16.9 µM (inactive) and the GI50 (SW-620) was 29.1 µM (inactive). For the same compound, the GI50 (HCC 2998) was 38.3 µM (inactive).
With `CCCCCCCC(=O)OCC1OC(OC)C(NC(=O)N(CCCl)N=O)C(O)C1O` (stereo not given) the GI50 (M14) was 8.41 µM (inactive), the GI50 (SF-539) was 2.64 µM (inactive) and the GI50 (KM-20L2) was 20.8 µM (inactive). For the same compound, the GI50 (SN12C) was 7.67 µM (inactive), the GI50 (UACC-62) was 1.86 µM (inactive) and the GI50 (HCT-15) was 3.27 µM. The GI50 (SK-MEL-5) was 15.1 µM (inactive), the GI50 (M19-MEL) was 17.9 µM (inactive) and the GI50 (HCT-116) was 3.22 µM (inactive). The GI50 (U-251) was 4.91 µM (inactive), the GI50 (786-0) was 3.92 µM (inactive) and the GI50 (OVCAR-4) was > 54.6 µM (inactive). For the same compound, the GI50 (SNB-19) was 14.5 µM (inactive), the GI50 (RPMI-8226) was 16.3 µM (inactive) and the GI50 (SW-620) was 4.17 µM (inactive). For the same compound, the GI50 (HCC 2998) was 14.3 µM (inactive).

Reference: ChEMBL document CHEMBL1201862, “PubChem BioAssay data set” (2004)
